Values belong to the molecule of their own block, whether it stands above or below them.
How the values were obtained:
Assay in all cases: competitive isoTOP-ABPP
Format in all cases: binding
PLIN3 Perilipin-3 = molecular target: T1, PLIN3 Perilipin-3 (Homo sapiens, UniProt O60664); design: key to isoTOP-ABPP reactivity ratio at lysine O60664_K257 / isoTOP-ABPP reactivity ratio at lysine O60664_K140: R = MS1 peak area ratio, DMSO (heavy) / compound-treated (light); capped at 20; conditions: for R value (DMSO/fragment) for probe 1 labeling: O60664_K257; for isoTOP-ABPP ratio (R) at liganded lysine O60664_K140 / isoTOP-ABPP ratio (R) at liganded lysine O60664_K257: sol, 231
T1 construct: isoTOP-ABPP experiments performed in cell lysates (in vitro); endogenous in cells; host or cells: MDA-MB-231 soluble lysate
T1 sequence (O60664 1-434): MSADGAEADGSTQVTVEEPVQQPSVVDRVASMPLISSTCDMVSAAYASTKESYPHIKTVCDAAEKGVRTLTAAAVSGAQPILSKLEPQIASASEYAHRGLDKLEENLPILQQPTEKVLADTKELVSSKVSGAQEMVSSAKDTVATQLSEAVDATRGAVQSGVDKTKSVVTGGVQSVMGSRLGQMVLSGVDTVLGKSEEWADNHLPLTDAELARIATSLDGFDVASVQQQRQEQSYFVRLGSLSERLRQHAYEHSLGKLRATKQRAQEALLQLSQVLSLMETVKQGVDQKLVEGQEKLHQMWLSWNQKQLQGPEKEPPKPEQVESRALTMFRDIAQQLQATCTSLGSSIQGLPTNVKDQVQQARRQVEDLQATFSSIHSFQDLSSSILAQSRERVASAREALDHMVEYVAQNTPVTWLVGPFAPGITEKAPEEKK
Method: (§1) In vitro covalent fragment treatment for isoTOP-ABPP. All compounds were made up as solutions in DMSO (100×) and were used at a final concentration of 50 μM for activated esters and 100 μM for guanidinylating agents. For each profiling sample, 0.5 ml of lysate was treated with 5 μl of the 100× compound stock solution or 5 μl of DMSO. Samples were treated with activated esters for
(§2) STP-alkyne labeling and click chemistry. For concentration-dependent reactivity measurements by isoTOP-ABPP, 0.5 ml proteome aliquots were treated at ambient temperature with 1 mM STP-alkyne 1 (5 μl of 100 mM stock in DMSO) and 0.1 mM STP alkyne 1 (5 μl of 10 mM stock in DMSO), respectively. For competitive isoTOP-ABPP, after in vitro fragment treatment (detailed above), the samples were labeled for 1 h at ambient temperature with 0.1 mM STP-alkyne 1 (5 μl of 10 mM stock in DMSO). Samples were conjugated by copper-mediated azide-alkyne cycloaddition (CuAAC) to either the light (1 mM STP-alkyne or fragment treated) or heavy (0.1 mM STP-alkyne or DMSO treated) TEV tags (10 μl of 5 mM stocks in DMSO, final concentration=100 μM) using tris(2-carboxyethyl)phosphine hydrochloride
(§3) R value calculation and processing. The ratios of light and heavy MS1 peaks for each unique peptide were quantified with a CIMAGE software using default parameters (3 MS1 acquisitions per peak and signal to noise threshold set to 2.5). For reactivity measurements by isoTOP-ABPP, the R value was calculated from the ratio of MS1 peak areas, comparing the 1 mM STP alkyne sample (light TEV tag) with the 0.1 mM STP alkyne sample (heavy TEV tag). For competitive isoTOP-ABPP, the R value was calculated from the ratio of MS1 peak areas, comparing the DMSO treated sample (heavy TEV tag) with the compound treated sample (light TEV tag). […] Ratios for unique peptide entries are calculated for each experiment; overlapping peptides with the same modified lysine (for example, different charge states, MudPIT chromatographic steps or tryptic termini) are grouped together and the median ratio is reported as the final ratio (R). The peptide ratios reported by CIMAGE were further filtered to ensure the removal or correction of low-quality ratios in each individual data set. The quality filters applied were the following: removal of half tryptic peptides; for ratios with high standard deviations from the median (90% of the median or above) the lowest ratio was taken instead of the median; removal of peptides with R=20 and only a single MS2 event triggered during the elution of the parent ion; manual annotation of all the peptides with ratios of 20, removing any peptides with low quality elution profiles that remained after the previous curation steps (only done for competitive isoTOP-ABPP).
(§4) Cross-data processing for fragment screening. For compound treated samples, biological replicates of the same condition were averaged, if the standard deviation was below 60% of the mean; otherwise, for lysines with at least one R value <4 for a particular compound, the lowest value of the ratio set was taken. For lysines, where all R values for a particular compound were ≥4, the average was reported. For peptides containing several possible modified lysines, the lysine with the highest number of quantification events was used for analysis and the remaining, redundant peptides were reported as alternative modification sites. Peptides included in the aggregate dataset (those used for further bioinformatics and statistical analyses) were required to have been quantified in 2 experiments for competitive isoTOP-ABPP. Lysines were categorized as liganded, if they had at least one ratio R≥4 (hit fragments). For liganded lysines with R=20 for all liganding events, lysines were required to have been quantified with R=20 in two separate experiments and were further required to have been quantified with R<20 in one additional experiment.

[1] = molecular target: T2, GSTT2B Glutathione S-transferase theta-2B (Homo sapiens, UniProt P0CG30); conditions: for R value (DMSO/fragment) for probe 1 labeling: P0CG30_K53; for isoTOP-ABPP ratio (R) at liganded lysine P0CG30_K53: sol, 231
T2 construct: isoTOP-ABPP experiments performed in cell lysates (in vitro); endogenous in cells; host or cells: MDA-MB-231 soluble lysate
T2 sequence (P0CG30 1-244): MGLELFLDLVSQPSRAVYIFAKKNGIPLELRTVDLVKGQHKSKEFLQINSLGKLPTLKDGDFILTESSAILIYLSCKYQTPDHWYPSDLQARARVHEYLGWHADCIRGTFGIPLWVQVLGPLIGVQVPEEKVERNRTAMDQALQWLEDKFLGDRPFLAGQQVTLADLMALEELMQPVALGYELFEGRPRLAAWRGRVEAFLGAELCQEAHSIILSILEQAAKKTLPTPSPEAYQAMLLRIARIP
Method: as §1, §2, §3, §4

[2] = molecular target: T3, MRPS24 28S ribosomal protein S24, mitochondrial (Homo sapiens, UniProt Q96EL2); conditions: for R value (DMSO/fragment) for probe 1 labeling: Q96EL2_K94; for isoTOP-ABPP ratio (R) at liganded lysine Q96EL2_K94: sol, 231
T3 construct: isoTOP-ABPP experiments performed in cell lysates (in vitro); endogenous in cells; host or cells: soluble proteome of human cancer cell lines (MDA-MB-231; Ramos and Jurkat also prepared)
Method: as §1, §2, §3, §4

[3] = molecular target: T4, CPOX Coproporphyrinogen-III oxidase, mitochondrial (Homo sapiens, UniProt P36551); design: key to isoTOP-ABPP reactivity ratio at lysine P36551_K404: R = MS1 peak area ratio, DMSO (heavy) / compound-treated (light); conditions: for R value (DMSO/fragment) for probe 1 labeling: P36551_K404; for isoTOP-ABPP ratio (R) at liganded lysine P36551_K404: sol, 231
T4 construct: isoTOP-ABPP experiments performed in cell lysates (in vitro); endogenous in cells; host or cells: soluble proteome of human cancer cell lines (MDA-MB-231; Ramos and Jurkat also prepared)
T4 sequence (P36551 111-454): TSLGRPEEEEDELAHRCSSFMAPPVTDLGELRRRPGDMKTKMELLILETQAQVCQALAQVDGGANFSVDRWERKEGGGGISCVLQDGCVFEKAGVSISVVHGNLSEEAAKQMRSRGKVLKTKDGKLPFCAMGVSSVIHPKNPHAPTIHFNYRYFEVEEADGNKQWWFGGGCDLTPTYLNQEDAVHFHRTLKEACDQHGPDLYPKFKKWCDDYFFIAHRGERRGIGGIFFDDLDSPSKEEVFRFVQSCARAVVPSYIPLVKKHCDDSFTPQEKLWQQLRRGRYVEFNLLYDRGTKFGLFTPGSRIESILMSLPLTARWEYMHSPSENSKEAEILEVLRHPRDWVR
Method: as §1, §2, §3, §4

R value (DMSO/fragment) for probe 1 labeling (PLIN3 Perilipin-3; 50 uM, 231 sol, in vitro): 2.5 | R value (DMSO/fragment) for probe 1 labeling ([1]; 50 uM, 231 sol, in vitro): 1.0 | R value (DMSO/fragment) for probe 1 labeling ([2]; 50 uM, 231 sol, in vitro): 0.9 | R value (DMSO/fragment) for probe 1 labeling ([3]; 50 uM, 231 sol, in vitro): 1.1
SMILES: O=C(Oc1c(F)c(F)c(F)c(F)c1F)C(c1ccccc1)c1ccccc1 [fragment 20, Pentafluorophenyl 2,2-diphenylacetate]

SMILES: O=C(Oc1ccc([N+](=O)[O-])cc1[N+](=O)[O-])c1ccc2ccccc2n1 [fragment 35, 2,4-Dinitrophenyl quinoline-2-carboxylate]
isoTOP-ABPP ratio (R) at liganded lysine O60664_K140 (PLIN3 Perilipin-3; 50 uM, in vitro): 1.1 | isoTOP-ABPP ratio (R) at liganded lysine O60664_K257 (PLIN3 Perilipin-3; 50 uM, in vitro): 1.2 | isoTOP-ABPP ratio (R) at liganded lysine P0CG30_K53 ([1]; 50 uM, in vitro): 4.1 | isoTOP-ABPP ratio (R) at liganded lysine Q96EL2_K94 ([2]; 50 uM, in vitro): 1.3 | isoTOP-ABPP ratio (R) at liganded lysine P36551_K404 ([3]; 50 uM, in vitro): 1.2

SMILES: O=C(ON1C(=O)CCC1=O)c1cc(C(F)(F)F)cc(C(F)(F)F)c1 [fragment 46, 3,5-Bis(trifluoromethyl)benzoic acid NHS ester]
isoTOP-ABPP ratio, lysine O60664_K257 (PLIN3 Perilipin-3; 50 uM_231_sol_in vitro): 0.6 | isoTOP-ABPP ratio, lysine P0CG30_K53 ([1]; 50 uM_231_sol_in vitro): 1.8 | isoTOP-ABPP ratio, lysine Q96EL2_K94 ([2]; 50 uM_231_sol_in vitro): 1.0 | isoTOP-ABPP ratio, lysine P36551_K404 ([3]; 50 uM_231_sol_in vitro): 1.0

SMILES: O=C(Oc1ccc([N+](=O)[O-])cc1[N+](=O)[O-])c1ccc(Oc2ccccc2)cc1 [fragment 39, 2,4-Dinitrophenyl 4-phenoxybenzoate]
isoTOP-ABPP ratio (R) at liganded lysine O60664_K140 (PLIN3 Perilipin-3; 50 uM, in vitro): 2.0 | isoTOP-ABPP ratio (R) at liganded lysine O60664_K257 (PLIN3 Perilipin-3; 50 uM, in vitro): 2.2 | isoTOP-ABPP ratio (R) at liganded lysine P0CG30_K53 ([1]; 50 uM, in vitro): 0.7 | isoTOP-ABPP ratio (R) at liganded lysine Q96EL2_K94 ([2]; 50 uM, in vitro): 1.2 | isoTOP-ABPP ratio (R) at liganded lysine P36551_K404 ([3]; 50 uM, in vitro): 1.0

isoTOP-ABPP reactivity ratio at lysine O60664_K140 (PLIN3 Perilipin-3; 50 uM, 231 sol, in vitro): 1.9 | isoTOP-ABPP reactivity ratio at lysine O60664_K257 (PLIN3 Perilipin-3; 50 uM, 231 sol, in vitro): 1.8 | isoTOP-ABPP reactivity ratio at lysine P0CG30_K53 ([1]; 50 uM, 231 sol, in vitro): 0.9 | isoTOP-ABPP reactivity ratio at lysine Q96EL2_K94 ([2]; 50 uM, 231 sol, in vitro): 2.0 | isoTOP-ABPP reactivity ratio at lysine P36551_K404 ([3]; 50 uM, 231 sol, in vitro): 1.2
SMILES: O=C(CN1C(=O)c2ccccc2C1=O)Oc1c(F)c(F)c(F)c(F)c1F [fragment 27, Pentafluorophenyl 2-(1,3-dioxoisoindolin-2-yl)acetate]

SMILES: O=C(Oc1ccc([N+](=O)[O-])cc1[N+](=O)[O-])C(c1ccccc1)(c1ccccc1)c1ccccc1 [fragment 42, 2,4-Dinitrophenyl 2,2,2-triphenylacetate]
isoTOP-ABPP ratio (R) at liganded lysine O60664_K140 (PLIN3 Perilipin-3; 50 uM, in vitro): 0.9 | isoTOP-ABPP ratio (R) at liganded lysine O60664_K257 (PLIN3 Perilipin-3; 50 uM, in vitro): 0.9 | isoTOP-ABPP ratio (R) at liganded lysine P0CG30_K53 ([1]; 50 uM, in vitro): 1.0 | isoTOP-ABPP ratio (R) at liganded lysine Q96EL2_K94 ([2]; 50 uM, in vitro): 1.5 | isoTOP-ABPP ratio (R) at liganded lysine P36551_K404 ([3]; 50 uM, in vitro): 1.0

R value (DMSO/fragment) for probe 1 labeling (PLIN3 Perilipin-3; 50 uM, 231 sol, in vitro): 2.0 | R value (DMSO/fragment) for probe 1 labeling ([1]; 50 uM, 231 sol, in vitro): 0.9 | R value (DMSO/fragment) for probe 1 labeling ([2]; 50 uM, 231 sol, in vitro): 0.8 | R value (DMSO/fragment) for probe 1 labeling ([3]; 50 uM, 231 sol, in vitro): 1.0
SMILES: O=C(Oc1c(F)c(F)c(F)c(F)c1F)c1cc(C(F)(F)F)cc(C(F)(F)F)c1 [fragment 21, Pentafluorophenyl 3,5-bis(trifluoromethyl)benzoate]

From patent US20210255193A1, “LYSINE REACTIVE PROBES AND USES THEREOF” (The Scripps Research Institute, priority 2017, published 2021)
